Test results as given in patent publication US6949250B2, “Selective algaecides for control of cyanochloronta” (The United States of America as represented by the …, priority 2002, dated 2005).

Legend:
Format in all cases: in vivo
chlorophyll a = test: DNA1-19-1 second and third pond efficacy studies: chlorophyll a; conditions: second and third efficacy study; 1, 0.3, and 0.1 μM
Protocol: (§1) The method described by Schrader et al. (2000) was used to determine the potential for using the anthraquinone derivatives as selective algicides in catfish aquaculture ponds. All catfish ponds used in efficacy tests were maintained using commercial pond management practices and were located at the Thad Cochran Pond Facility, Mississippi State University, Stoneville, Miss. Anthraquinone analogs were dissolved in deionized water before application to water within the limnocorrals.
(§2) Limnocorrals in which test compound was applied to the enclosed water were randomly selected, and control (no test compound applied) limnocorrals were included in each efficacy study. For each sampling, two water samples (250 mL) were obtained from within each limnocorral (approximately 6-8 cm below the water surface and from opposite sides of each limnocorral) and mixed together in a 500 mL sample bottle to provide a representative sample of the water contained within the limnocorral.
In the second study with DNA1-19-1, twelve limnocorrals that were the same size as those used in the first study were placed in another 4-ha earthen catfish pond. […] The sampling regime and procedures used in the first study were followed in a similar manner, except that water samples were obtained before DNA1-19-1 application, 16 hours after application, and at days 2, 4, and 7. […]

Anabaena circinalis = test: DNA2-59-1 first pond efficacy study: Anabaena circinalis abundance
Protocol: as §1
(§3) Limnocorrals in which test compound was applied to the enclosed water were randomly selected, and control (no test compound applied) limnocorrals were included in each efficacy study. […]
(§4) In the first study, application rates of 0.1 μM (37.7 μg/L), 0.3 μM ([…]), and 1.0 μM (377 μg/L) of DNA2-59-1 were tested using limnocorrals (three replicates per concentration) that were of the same type used for testing DNA1-19-1. […] Water samples were also analyzed to determine the persistence of DNA2-59-1 in the pond water, and this analysis was performed by using high-pressure liquid chromatography (HPLC) (method and results are described later).

green algae = test: DNA2-59-1 first pond efficacy study: green algae abundance; conditions: first study, 0.1, 0.3 and 1 μM
Protocol: as §1, §3, §4

diatoms = test: DNA2-59-1 third pond efficacy study: diatom abundance; conditions: 0.3 μM, from three days after application
Protocol: as §1, §2
(§5) For the third efficacy test with DNA2-59-1, twelve limnocorrals (2.44 m in diameter and 1.53 m high) were placed in a 4-ha earthen pond containing a bloom of O. perornata. […]

Oscillatoria geminata = test: DNA2-59-1 third pond efficacy study: Oscillatoria geminata abundance; conditions: 0.3 μM, from two days through four days after application
Protocol: as §1, §2, §5

Cylindrospermopsis spp. = test: DNA2-59-1 third pond efficacy study: Cylindrospermopsis spp. abundance; conditions: 0.3 μM, one day after application
Protocol: as §1, §2, §5

Raphidiopsis brookii = test: DNA2-59-1 second pond efficacy study: Raphidiopsis brookii abundance; conditions: 0.3 μM, within three days of application
Protocol: as §1, §2
In the second efficacy test with DNA2-59-1, six limnocorrals (1.53 m in diameter and 1.53 m high) were placed in a 0.1-ha earthen pond containing a heavy bloom of O. perornata. The same delay in mixing the water within the limnocorrals used in the first efficacy study was utilized. Water within three randomly selected limnocorrals received an application rate of 0.3 μM DNA2-59-1, and the other three limnocorrals were controls. […]

Row | SMILES | chlorophyll a levels compared to controls (result in words) (chlorophyll a) | Numbers of Anabaena circinalis compared to controls (result in words) (Anabaena circinalis; 1 μM) | filaments of A. circinalis present (result in words) (Anabaena circinalis; 16 hours after application of 1 μM) | Numbers of green algae compared to controls (result in words) (green algae) | Numbers of diatoms vs control limnocorrals (result in words) (diatoms) | abundance of Oscillatoria geminate vs controls (result in words) (Oscillatoria geminata) | Numbers of Cylindrospermopsis spp. (result in words) (Cylindrospermopsis spp.) | Numbers of Raphidiopsis brookii (result in words) (Raphidiopsis brookii)
1 | CCN(CC)CCCC(C)NCc1ccc2c(c1)C(=O)c1ccccc1C2=O.O=P(O)(O)O.O=P(O)(O)O (centres unmarked) [DNA1-19-1, 2-[methylamino-N-(1′-methyl-4′-N,N-diethylaminobutyl)]-9,10-anthraquinone diphosphate] | lack of reduction |  |  |  |  |  |  | 
2 | CC(C)NCc1ccc2c(c1)C(=O)c1ccccc1C2=O [DNA2-59-1, 2-[methylamino-N-(1′-methylethyl)]-9,10-anthraquinone monophosphate] |  | significantly reduced | no filaments of A. circinalis were observed to be present | not significantly affected | significantly higher | significantly lower than controls | significantly reduced | significantly and dramatically reduced
